Data published in US10471046B2, “Method for treating, preventing, or reducing the risk of skin infection” (Melinta Subsidiary Corp., priority 2014, dated 2019).
≈ marks a conversion by molar mass, not a printed value.

System: S. aureus
Experiment: Minimum inhibitory concentrations (MICs) for S. aureus of exemplary compounds (Table 2)
Assay type: cell-based
Conditions: Staphylococcus aureus, minimum inhibitory concentrations for S. aureus; read-out: MICs
Procedure, shortened: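 Growth of S. aureus in media with or without compound, by broth microdilution in microtiter trays following NCCLS M7-A5 guidelines. Values are MICs in μg/mL.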

| MIC [µg/mL] | Compound |
| --- | --- |
| 8 (≈ 13.9 µM) | CCOC(=O)c1c(CNCc2ccc(-c3ccc(N4C[C@H](CNC(C)=O)OC4=O)cc3F)cc2)c(C)n(C2CC2)c1C [Compound 4157, 4-[({4′-[5-(S)-(Acetylamino-methyl)-2-oxo-oxazolidin-3-yl]-2′-fluoro-biphenyl-4-ylmethyl}-amino)-methyl]-1-cyclopropyl-2,5-dimethyl-1H-pyrrole-3-carboxylic acid ethyl ester] |
| 8 (≈ 16.7 µM) | CC(=O)NC[C@H]1CN(c2ccc(-c3ccc(CNCc4c(C)nn(C)c4C)cc3)c(F)c2)C(=O)O1 [Compound 4163, N-[3-(2-Fluoro-4′-{[(1,3,5-trimethyl-1H-pyrazol-4-ylmethyl)-amino]-methyl}-biphenyl-4-yl)-2-oxo-oxazolidin-5-(S)-ylmethyl]-acetamide] |
| 1 (≈ 2.11 µM) | CC(=O)NC[C@H]1CN(c2ccc(-c3ccc(CNCc4csnn4)c(F)c3)c(F)c2)C(=O)O1 [Compound 4164, N-[3-(2,3′-Difluoro-4′-{[([1,2,3]thiadiazol-4-ylmethyl)-amino]-methyl}-biphenyl-4-yl)-2-oxo-oxazolidin-5-(S)-ylmethyl]-acetamide] |
| 4 (≈ 8.86 µM) | CC(=O)NC[C@H]1CN(c2ccc(-c3ccc(CNCc4c[nH]c(C)n4)cc3)c(F)c2)C(=O)O1 [Compound 4165, N-[3-(2-Fluoro-4′-{[(2-methyl-1H-imidazol-4-ylmethyl)-amino]-methyl}-biphenyl-4-yl)-2-oxo-oxazolidin-5-(S)-ylmethyl]-acetamide] |
| 2 (≈ 3.77 µM) | CC(=O)NC[C@H]1CN(c2ccc(-c3ccc(CNCc4nn(C)cc4Br)cc3)c(F)c2)C(=O)O1 [Compound 4168, N-[3-(4′-{[(4-Bromo-1-methyl-1H-pyrazol-3-ylmethyl)-amino]-methyl}-2-fluoro-biphenyl-4-yl)-2-oxo-oxazolidin-5-(S)-ylmethyl]-acetamide] |
| 2 (≈ 3.87 µM) | CC(=O)NC[C@H]1CN(c2ccc(-c3ccc(CNCc4[nH]ncc4Br)cc3)c(F)c2)C(=O)O1 [Compound 4169, N-[3-(4′-{[(4-Bromo-2H-pyrazol-3-ylmethyl)-amino]-methyl}-2-fluoro-biphenyl-4-yl)-2-oxo-oxazolidin-5-(S)-ylmethyl]-acetamide] |
| 128 (≈ 250 µM) | CC(=O)NC[C@H]1CN(c2ccc(-c3ccc(CS(=O)(=O)NCc4ccccc4)cc3)c(F)c2)C(=O)O1 [Compound 4170, N-{3-[4′-(Benzylsulfamoyl-methyl)-2-fluoro-biphenyl-4-yl]-2-oxo-oxazolidin-5-(S)-ylmethyl}-acetamide] |
| 128 (≈ 269 µM) | CC(=O)NC[C@H]1CN(c2ccc(-c3cc(C)c(CNCc4ccncc4)cc3C)c(F)c2)C(=O)O1 [Compound 4176, N-[3-(2-Fluoro-2′,5′-dimethyl-4′-{[(pyridin-4-ylmethyl)-amino]-methyl}-biphenyl-4-yl)-2-oxo-oxazolidin-5-(S)-ylmethyl]-acetamide] |
| 4 (≈ 8.02 µM) | CC(=O)NC[C@H]1CN(c2ccc(-c3ccc(CNCC(F)(F)c4ccccn4)cc3)c(F)c2)C(=O)O1 [Compound 4177, N-(3-{4′-[(2,2-Difluoro-2-pyridin-2-yl-ethylamino)-methyl]-2-fluoro-biphenyl-4-yl}-2-oxo-oxazolidin-5-(S)-ylmethyl)-acetamide] |
| 1 (≈ 1.9 µM) | CC(=O)NC[C@H]1CN(c2ccc(-c3ccc(CNCc4ccc(Br)nc4)cc3)c(F)c2)C(=O)O1 [Compound 4181, N-[3-(4′-{[(6-Bromo-pyridin-3-ylmethyl)-amino]-methyl}-2-fluoro-biphenyl-4-yl)-2-oxo-oxazolidin-5-(S)-ylmethyl]-acetamide] |
| 1 (≈ 2.28 µM) | CC(=O)NC[C@H]1CN(c2ccc(-c3ccc(CNCc4ccon4)cc3)c(F)c2)C(=O)O1 [Compound 4183, N-[3-(2-Fluoro-4′-{[(isoxazol-3-ylmethyl)-amino]-methyl}-biphenyl-4-yl)-2-oxo-oxazolidin-5-(S)-ylmethyl]-acetamide] |
| 64 (≈ 141 µM) | CC(=O)NC[C@H]1CN(c2ccc(-c3ccc(CNCC4CCNCC4)cc3)c(F)c2)C(=O)O1 [Compound 4186, N-[3-(2-Fluoro-4′-{[(piperidin-4-ylmethyl)-amino]-methyl}-biphenyl-4-yl)-2-oxo-oxazolidin-5-(S)-ylmethyl]-acetamide] |
| 1 (≈ 2.07 µM) | CC(=O)NC[C@H]1CN(c2ccc(-c3ccc(C(=O)NCCc4cnc[nH]4)c(F)c3)c(F)c2)C(=O)O1 [Compound 4191, 4′-[5-(S)-(Acetylamino-methyl)-2-oxo-oxazolidin-3-yl]-3,2′-difluoro-biphenyl-4-carboxylic acid [2-(3H-imidazol-4-yl)-ethyl]-amide] |

The next lines start with the compound.

| Compound | MIC [µg/mL] |
| --- | --- |
| CC(=O)NC[C@H]1CN(c2ccc(-c3ccc(CNCc4ccc(-c5cccc(S(N)(=O)=O)c5)o4)cc3)c(F)c2)C(=O)O1 [Compound 4158, N-{3-[2-Fluoro-4′-({[5-(3-sulfamoyl-phenyl)-furan-2-ylmethyl]-amino}-methyl)-biphenyl-4-yl]-2-oxo-oxazolidin-5-(S)-ylmethyl}-acetamide] | 2 (≈ 3.37 µM) |
| CCc1ccc(CNCc2ccc(-c3ccc(N4C[C@H](CNC(C)=O)OC4=O)cc3F)cc2)o1 [Compound 4161, N-[3-(4′-{[(5-Ethyl-furan-2-ylmethyl)-amino]-methyl}-2-fluoro-biphenyl-4-yl)-2-oxo-oxazolidin-5-(S)-ylmethyl]-acetamide] | 2 (≈ 4.3 µM) |
| CCc1ccc(CNCc2ccc(-c3ccc(N4C[C@H](CNC(C)=O)OC4=O)cc3F)cc2)s1 [Compound 4162, N-[3-(4′-{[(5-Ethyl-thiophen-2-ylmethyl)-amino]-methyl}-2-fluoro-biphenyl-4-yl)-2-oxo-oxazolidin-5-(S)-ylmethyl]-acetamide] | 2 (≈ 4.15 µM) |
| CC(=O)NC[C@H]1CN(c2ccc(-c3cccc(CNCc4csnn4)c3)c(F)c2)C(=O)O1 [Compound 4166, N-[3-(2-Fluoro-3′-{[([1,2,3]thiadiazol-4-ylmethyl)-amino]-methyl}-biphenyl-4-yl)-2-oxo-oxazolidin-5-(S)-ylmethyl]-acetamide] | 8 (≈ 17.6 µM) |
| CSc1ccc(CNCc2ccc(-c3ccc(N4C[C@H](CNC(C)=O)OC4=O)cc3F)cc2)s1 [Compound 4167, N-[3-(2-Fluoro-4′-{[(5-methylsulfanyl-thiophen-2-ylmethyl)-amino]-methyl}-biphenyl-4-yl)-2-oxo-oxazolidin-5-(S)-ylmethyl]-acetamide] | 2 (≈ 4 µM) |
| CC(=O)NC[C@H]1CN(c2ccc(-c3ccc(C(=O)N[C@@H](Cc4cnc[nH]4)C(N)=O)cc3)c(F)c2)C(=O)O1 [Compound 4173, 4′-[5-(S)-(Acetylamino-methyl)-2-oxo-oxazolidin-3-yl]-2′-fluoro-biphenyl-4-carboxylic acid [1-carbamoyl-2-(S)-(3H-imidazol-4-yl)-ethyl]-amide] | 32 (≈ 62.9 µM) |
| CC(=O)NC[C@H]1CN(c2ccc(-c3ccc(CN[C@@H](Cc4c[nH]c5ccccc45)C(N)=O)cc3)c(F)c2)C(=O)O1 [Compound 4175, 2-({4′-[5-(S)-(Acetylamino-methyl)-2-oxo-oxazolidin-3-yl]-2′-fluoro-biphenyl-4-ylmethyl}-amino)-3-(S)-(1H-indol-3-yl)-propionamide] | 2 (≈ 3.68 µM) |
| CC(=O)NC[C@H]1CN(c2ccc(-c3ccc(CNCc4n[nH]c(=O)[nH]4)cc3)c(F)c2)C(=O)O1 [Compound 4178, N-[3-(2-Fluoro-4′-{[(5-(S)-oxo-4,5-dihydro-1H-[1,2,4]triazol-3-ylmethyl)-amino]-methyl}-biphenyl-4-yl)-2-oxo-oxazolidin-5-(S)-ylmethyl]-acetamide] | 8 (≈ 17.6 µM) |
| CC(=O)NC[C@H]1CN(c2ccc(-c3ccc(CNCc4ccncc4F)cc3)c(F)c2)C(=O)O1 [Compound 4179, N-[3-(2-Fluoro-4′-{[(3-fluoro-pyridin-4-ylmethyl)-amino]-methyl}-biphenyl-4-yl)-2-oxo-oxazolidin-5-(S)-ylmethyl]-acetamide] | 2 (≈ 4.29 µM) |
| CNc1nc(CNCc2ccc(-c3ccc(N4C[C@H](CNC(C)=O)OC4=O)cc3F)cc2)ns1 [Compound 4180, N-[3-(2-Fluoro-4′-{[(5-methylamino-[1,2,4]thiadiazol-3-ylmethyl)-amino]-methyl}-biphenyl-4-yl)-2-oxo-oxazolidin-5-(S)-ylmethyl]-acetamide] | 1 (≈ 2.06 µM) |
| CC(=O)NC[C@H]1CN(c2ccc(-c3ccc(CNCc4ccc(Br)cn4)cc3)c(F)c2)C(=O)O1 [Compound 4182, N-[3-(4′-{[(5-Bromo-pyridin-2-ylmethyl)-amino]-methyl}-2-fluoro-biphenyl-4-yl)-2-oxo-oxazolidin-5-(S)-ylmethyl]-acetamide] | 2 (≈ 3.79 µM) |
| CC(=O)NC[C@H]1CN(c2ccc(-c3ccc([C@@H](NCc4ccncc4)C(N)=O)cc3)c(F)c2)C(=O)O1 [Compound 4184, 2-{4′-[5-(S)-(Acetylamino-methyl)-2-oxo-oxazolidin-3-yl]-2′-fluoro-biphenyl-4-yl}-2-(R)-[(pyridin-4-ylmethyl)-amino]-acetamide] | 16 (≈ 32.6 µM) |
| CC(=O)NC[C@H]1CN(c2ccc(-c3ccc([C@@H](NCc4ccccn4)C(N)=O)cc3)c(F)c2)C(=O)O1 [Compound 4185] | 16 (≈ 32.6 µM) |
| CC(=O)NC[C@H]1CN(c2ccc(-c3ccc(C(=O)NCc4ccccn4)nc3)c(F)c2)C(=O)O1 [Compound 4187, 5-{4-[5-(S)-(Acetylamino-methyl)-2-oxo-oxazolidin-3-yl]-2-fluoro-phenyl}-pyridine-2-carboxylic acid (pyridin-2-ylmethyl)-amide] | 1 (≈ 2.16 µM) |
| CC(=O)NC[C@H]1CN(c2ccc(-c3ccc(C(=O)NCc4ccncc4)nc3)c(F)c2)C(=O)O1 [Compound 4188, 5-{4-[5-(S)-(Acetylamino-methyl)-2-oxo-oxazolidin-3-yl]-2-fluoro-phenyl}-pyridine-2-carboxylic acid (pyridin-4-ylmethyl)-amide] | 1 (≈ 2.16 µM) |
| CC(=O)NC[C@H]1CN(c2ccc(-c3ccc(C(=O)NCc4nccs4)nc3)c(F)c2)C(=O)O1 [Compound 4189, 5-{4-[5-(S)-(Acetylamino-methyl)-2-oxo-oxazolidin-3-yl]-2-fluoro-phenyl}-pyridine-2-carboxylic acid (thiazol-2-ylmethyl)-amide] | 1 (≈ 2.13 µM) |
| CC(=O)NC[C@H]1CN(c2ccc(-c3ccc(C(=O)NCc4ccccn4)c(F)c3)c(F)c2)C(=O)O1 [Compound 4190, 4′-[5-(S)-(Acetylamino-methyl)-2-oxo-oxazolidin-3-yl]-3,2′-difluoro-biphenyl-4-carboxylic acid (pyridin-2-ylmethyl)-amide] | 1 (≈ 2.08 µM) |
